According to patent US20160231319A1, “METHOD OF ENHANCING HEMATOPOIETIC CELL TRANSPLANTATION” (Verve, Ltd., priority 2014, published 2016):

Columns and labels:
[1] = test system: UCB HSC; settings: pulse incubation of UCB cells; clinical trial; cited from earlier work
[2] = test system: phospho-GSK-3β in CD34+ cells from UCB; experiment: UCB mononuclear cells treated with PGE2; phospho-GSK-3β expression in CD34+ cells by high-resolution flow cytometry; format: cell-based; settings: UCB treated with reagent vehicle (DMSO) versus PGE2
Text: Using our high-resolution flow cytometric technology, we have studied HSC for measures of potency. Our conception has been that expression levels of molecules shown to be important for hematopoiesis in experimental studies may have utility in assessing the potency of HSC in terms of engraftment after transplantation.
In order to assess molecular expression level correlates of potency in UCB HSC, we treated UCB mononuclear cells with PGE2 and assessed the expression of […].
This is consistent with our previous finding that phospho-GSK-3β is a potency biomarker.

## CCCCC[C@H](O)/C=C/[C@H]1[C@H](O)CC(=O)[C@@H]1C/C=C\CCCC(=O)O [PGE2, Prostaglandin E2]
[1]
  potency of the HSC in terms of engraftment: enhances the potency of the HSC in terms of engraftment
[2]
  expression of phospho-GSK-3β in CD34+ cells: able to detect differences in expression of phospho-GSK-3β
